Experimental findings from ChEMBL document CHEMBL1201862, “PubChem BioAssay data set” (2004) are described below.

Test systems include SF-268; UACC-257; NCI-H522; MOLT-4; LOX IMVI; UO-31; SF-295; HCT-116; DMS-273; TK-10; HOP-62; HOP-92; NCI-H226; SNB-75; K562; OVCAR-5; HCT-15; RXF 393; DU-145; MDA-MB-435.
Common to all, as to test: growth of human tumour cells (NCI), 48 h

The structures appear in SMILES notation. Structures can show the parent of a compound that is named as a salt.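 Growth conditions: 96-well plates. Treatment: test compound, 48 hours, 5 concentrations. Analysis: linear interpolation between bracketing concentrations; unreached endpoints set to highest concentration. GI50 = concentration required for 50% inhibition of growth.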 Calls of active or inactive are those of the source. No stated cut-off is given here; in the data, active = GI50 up to about 1.1 µM and inactive = higher. Non-standard residues stand in square brackets, D forms with d. Residues, ends and D or L forms follow the SMILES beside them. ξ: configuration not given here. *: point of attachment. dThr(3ξ) = CC(O)[C@@H](N)C(=O)O; dNMeL = CN[C@H](CC(C)C)C(=O)O; OBn = c1ccc(CO*)cc1; ξLac = CC(O)C(=O)O Some results are limits rather than exact numbers.

Regarding `Cn1cnc([N+](=O)[O-])c1Sc1nccn1-c1cccc2ccccc12`, the GI50 with SF-268 is 24.8 µM (inactive); in the experiment with UACC-257, 27.3 µM (inactive); in the experiment with NCI-H522 it was 8.69 µM (inactive); in the experiment with MOLT-4, 12.9 µM (inactive); with LOX IMVI, 13.6 µM (inactive); in the experiment with UO-31, 16.7 µM (inactive). The GI50 was 48.4 µM (inactive) in the experiment with SF-295; 19.7 µM (inactive) with HCT-116; 25.2 µM (inactive) in the experiment with DMS-273; 22 µM (inactive) with TK-10; > 100 µM (inactive) in the experiment with HOP-62; 15.3 µM (inactive) in the experiment with HOP-92. The GI50 was 18.2 µM (inactive) in the experiment on NCI-H226, 29.9 µM (inactive) with SNB-75, 19.8 µM (inactive) with K562 and 23.2 µM (inactive) in the experiment on OVCAR-5.
As for `CCN(CC)C(=S)SCC(=O)Nc1nc2c(s1)CCCC2`, the GI50 in the experiment with SF-268 is > 100 µM (inactive); in the experiment on UACC-257 it was 36.9 µM (inactive); in the experiment with NCI-H522 it was 28 µM (inactive); with MOLT-4 it was 41.4 µM (inactive); in the experiment with LOX IMVI, 57 µM (inactive); in the experiment on UO-31, 36.7 µM (inactive). Also, the GI50 was 85.5 µM (inactive) in the experiment on SF-295; 64.3 µM (inactive) with HCT-116; 88.5 µM (inactive) in the experiment on DMS-273; > 100 µM (inactive) in the experiment with TK-10; > 100 µM (inactive) in the experiment on HOP-62; 68.2 µM (inactive) with HOP-92. The GI50 was > 100 µM (inactive) in the experiment on NCI-H226, 72.6 µM (inactive) in the experiment with SNB-75, 24.6 µM with HCT-15 and > 100 µM (inactive) with OVCAR-5.
Consider `Cc1cccc(C)c1NC(=O)CCC/C(CC(=O)c1ccc(F)cc1)=N\NC(=O)C(=O)NN`, for which the GI50 in the experiment with SF-268, with UACC-257, in the experiment with MOLT-4, in the experiment with LOX IMVI, in the experiment on UO-31 and in the experiment with SF-295 was > 100 µM (inactive) each time. Besides, the GI50 is > 100 µM (inactive) in the experiment on HCT-116; > 100 µM (inactive) with DMS-273; > 100 µM (inactive) with TK-10; > 100 µM (inactive) in the experiment with NCI-H226; > 100 µM (inactive) in the experiment on SNB-75; more than 100 µM in the experiment on HCT-15. Moreover, the GI50 in the experiment on K562 is > 100 µM (inactive); in the experiment with OVCAR-5 it was > 100 µM (inactive); in the experiment with RXF 393 it was 21.9 µM (inactive).
With `Nc1nc2c(c(=O)[nH]1)NC(CO)CN2` (centres undefined), the GI50 in the experiment with UACC-257 was 24.3 µM (inactive); in the experiment with NCI-H522, > 100 µM (inactive); in the experiment on MOLT-4 it was 37.1 µM (inactive); in the experiment on LOX IMVI, 19.2 µM (inactive); with UO-31 it was > 100 µM (inactive); in the experiment on SF-295 it was 89.5 µM (inactive). The GI50 in the experiment on HCT-116 was 32.7 µM (inactive); in the experiment with DMS-273, > 100 µM (inactive); in the experiment on TK-10 it was > 100 µM (inactive); in the experiment with HOP-62 it was > 100 µM (inactive); with NCI-H226, > 100 µM (inactive); with SNB-75, > 100 µM (inactive). Moreover, the GI50 in the experiment with HCT-15 was more than 100 µM; with K562, 51.3 µM (inactive); in the experiment on RXF 393 it was > 100 µM (inactive).
Turning to `CCOC(=O)/C(C#N)=C(O)/C(=C\c1ccc(Br)cc1)NC(=O)c1ccccc1`, the GI50 was > 100 µM (inactive) in the experiment on SF-268; > 100 µM (inactive) with UACC-257; > 100 µM (inactive) in the experiment with MOLT-4; > 100 µM (inactive) in the experiment with UO-31; > 100 µM (inactive) in the experiment on SF-295; 16.4 µM (inactive) in the experiment on HCT-116. The GI50 in the experiment with DMS-273 is > 100 µM (inactive); in the experiment on TK-10 it was > 100 µM (inactive); in the experiment with HOP-62 it was > 100 µM (inactive); with HOP-92 it was > 100 µM (inactive); in the experiment on NCI-H226, 30.4 µM (inactive); with SNB-75 it was > 100 µM (inactive). The GI50 in the experiment on HCT-15 is 37.4 µM; in the experiment with K562, > 100 µM (inactive); with OVCAR-5, > 100 µM (inactive).
Turning to `CC1Cc2c(N)nc(NN)nc2NC1=O` (centres undefined), the GI50 in the experiment with UACC-257, in the experiment on NCI-H522, in the experiment with MOLT-4, in the experiment with LOX IMVI, in the experiment with UO-31 and in the experiment with SF-295 was > 100 µM (inactive) each time. Moreover, the GI50 in the experiment with HCT-116, in the experiment on DMS-273, in the experiment with TK-10, with HOP-62, with NCI-H226 and in the experiment on SNB-75 was > 100 µM (inactive) in each case. Moreover, the GI50 was more than 100 µM in the experiment on HCT-15, > 100 µM (inactive) in the experiment with K562 and > 100 µM (inactive) in the experiment on RXF 393.
In the case of `CC(=O)OC(C)[C@@H](NC(=O)[C@@H](CC(C)C)N(C)C(=O)[C@@H]1CCCN1C(=O)C(C)O)C(=O)OCc1ccccc1` (some centres undefined) (H-[ξLac]P[dNMeL][dThr(3ξ)](Ac)-OBn), the GI50 in the experiment with SF-268, with DU-145, in the experiment on UACC-257, with NCI-H522, in the experiment on MOLT-4 and with LOX IMVI was > 100 µM (inactive) in each case. The GI50 in the experiment on UO-31, with SF-295, with HCT-116, in the experiment with TK-10, with HOP-62 and in the experiment on HOP-92 was > 100 µM (inactive) in each case. Moreover, the GI50 is > 100 µM (inactive) in the experiment with NCI-H226; 81.7 µM (inactive) with SNB-75; > 100 µM (inactive) with MDA-MB-435; more than 100 µM with HCT-15; > 100 µM (inactive) with K562; > 100 µM (inactive) in the experiment with OVCAR-5. Moreover, in the experiment with RXF 393, the GI50 is > 100 µM (inactive).
Take `CC(C)(C)c1cc([N+](=O)[O-])cc([N+](=O)[O-])c1O` [DINOTERB]: the GI50 in the experiment on SF-268 was > 10 µM (inactive); in the experiment on DU-145 it was 9.59 µM (inactive); with UACC-257, 8.57 µM (inactive); in the experiment with NCI-H522 it was > 10 µM (inactive); in the experiment with MOLT-4, > 10 µM (inactive); in the experiment with LOX IMVI, > 10 µM (inactive). Moreover, the GI50 is > 10 µM (inactive) in the experiment on UO-31; > 10 µM (inactive) in the experiment with SF-295; > 10 µM (inactive) in the experiment with HCT-116; > 10 µM (inactive) with TK-10; > 10 µM (inactive) in the experiment with HOP-62; 2.77 µM (inactive) in the experiment with HOP-92. Moreover, the GI50 with NCI-H226 was > 10 µM (inactive); in the experiment with SNB-75 it was > 10 µM (inactive); in the experiment on MDA-MB-435, > 10 µM (inactive); in the experiment on HCT-15, more than 10 µM; in the experiment with K562, 9.29 µM (inactive); in the experiment on OVCAR-5, > 10 µM (inactive). Moreover, the GI50 with RXF 393 was > 10 µM (inactive).
Turning to `OC(CNc1ccccn1)c1ccccc1` (centres undefined) [PHENYRAMIDOL HYDROCHLORIDE], the GI50 in the experiment on SF-268, in the experiment with DU-145, with UACC-257, with NCI-H522, in the experiment on MOLT-4 and with LOX IMVI was > 100 µM (inactive) in each case. In addition, the GI50 in the experiment with UO-31, in the experiment on SF-295, with HCT-116, in the experiment with TK-10, in the experiment on HOP-62 and in the experiment on HOP-92 was > 100 µM (inactive) throughout. Also, the GI50 was > 100 µM (inactive) in the experiment with NCI-H226; > 100 µM (inactive) in the experiment on SNB-75; > 100 µM (inactive) in the experiment with MDA-MB-435; more than 100 µM in the experiment on HCT-15; 85.5 µM (inactive) in the experiment on K562; > 100 µM (inactive) in the experiment with OVCAR-5. Besides, the GI50 in the experiment on RXF 393 is > 100 µM (inactive).
